The supplement of paper PMC10307832

Legend:
Assay in all cases: relative viability (nuclei count vs DMSO), 5 days (fraction); higher = more cells survive
[1] = compound: CCC1=CN=CN=C1N2CCN(CC2)CC3=NC4=C(N3)C=C(C=C4)C(F)(F)F + O=C(c1cc(Cc2n[nH]c(=O)c3ccccc23)ccc1F)N1CCN(C(=O)C2CC2)CC1 [Olaparib] (partner 8 µM)
Procedure, shortened: (§1)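 Relative viability was taken as the ratio of nuclei in treated wells to nuclei in vehicle wells. Lung cancer cell lines in 1536-well plates received compounds by pin tool one day after seeding, either one drug alone or a fixed anchor-drug dose plus five library-drug doses (not always all listed) in √10 steps. Nuclei were counted on 4× images after 5 days of treatment, and values are medians of duplicate plates.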

[2] = compound: CCn1c(-c2nonc2N)nc2cnc(Oc3cccc(NC(=O)c4ccc(OCCN5CCOCC5)cc4)c3)cc21 + Cc1nc(Nc2ncc(C(=O)Nc3c(C)cccc3Cl)s2)cc(N2CCN(CCO)CC2)n1 [Dasatinib] (partner 0.075 µM)
Procedure, shortened: as §1

[3] = compound: CCn1c(-c2nonc2N)nc2cnc(Oc3cccc(NC(=O)c4ccc(OCCN5CCOCC5)cc4)c3)cc21 + CS(=O)(=O)N1CCN(Cc2cc3nc(-c4cccc5[nH]ncc45)nc(N4CCOCC4)c3s2)CC1 [Pictilisib] (partner 1 µM)
Procedure, shortened: as §1

[4] = compound: CCn1c(-c2nonc2N)nc2cnc(Oc3cccc(NC(=O)c4ccc(OCCN5CCOCC5)cc4)c3)cc21 + NC(=O)Nc1cc(-c2cccc(F)c2)sc1C(=O)N[C@H]1CCCNC1 [AZD7762] (partner 0.2 µM)
Procedure, shortened: as §1

Cell Line	relative viability ([1]; first compound 0.04 µM)	relative viability ([1]; first compound 0.1265 µM)	relative viability ([1]; first compound 0.4 µM)	relative viability ([1]; first compound 1.265 µM)	relative viability ([1]; first compound 4 µM)	relative viability ([2]; first compound 0.04 µM)	relative viability ([2]; first compound 0.1265 µM)	relative viability ([2]; first compound 0.4 µM)	relative viability ([2]; first compound 1.265 µM)	relative viability ([2]; first compound 4 µM)	relative viability ([3]; first compound 0.04 µM)	relative viability ([3]; first compound 0.1265 µM)	relative viability ([3]; first compound 0.4 µM)	relative viability ([3]; first compound 1.265 µM)	relative viability ([3]; first compound 4 µM)	relative viability ([4]; first compound 0.04 µM)	relative viability ([4]; first compound 0.1265 µM)	relative viability ([4]; first compound 0.4 µM)	relative viability ([4]; first compound 1.265 µM)	relative viability ([4]; first compound 4 µM)
NCI-H1355	0.775	0.654	0.732	0.667	0.643	0.755	0.712	0.235	0.312	0.275	0.446	0.418	0.338	0.32	0.277	0.676	0.684	0.369	0.313	0.217
NCI-H1395	0.459	0.482	0.461		0.469	0.398	0.37	0.342	0.317	0.345	0.795	0.508	0.491	0.384	0.536	0.356	0.36	0.359	0.352	0.333
NCI-H1437	0.597	0.595	0.575	0.544	0.505	0.629	0.373	0.148	0.363	0.35	0.383	0.39	0.257	0.443	0.283	1.13	1.08	0.718	0.625	0.642
NCI-H1651	0.206	0.179	0.175	0.19	0.17	0.499	0.369	0.229	0.247	0.267	0.762	0.667	0.456	0.486	0.345	0.566	0.477	0.373	0.146	0.282
NCI-H1666	0.743	0.729	0.772	0.727	0.71	0.788	0.617	0.442	0.28	0.278	0.527	0.409	0.499	0.329	0.246	0.907	0.875	0.694	0.383	0.477
NCI-H1734	0.63	0.609	0.587	0.584	0.557	0.416	0.39	0.232	0.229	0.198	0.47	0.415	0.282	0.309	0.249	0.581	0.423	0.274	0.22	0.224
NCI-H1755	0.915	0.903	0.856	0.82	0.75	0.373	0.257	0.15	0.206	0.186	0.484	0.391	0.327	0.331	0.3	0.437	0.4	0.291	0.243	0.31
NCI-H1792	0.895	0.406	0.369		0.399	0.954	0.514		0.405	0.488	0.267	0.28		0.231	0.285	0.541	0.37	0.15	0.106	0.11
NCI-H1793	0.736	0.754	0.697	0.564	0.784	0.385	0.284	0.208	0.183	0.194	0.336	0.413	0.295	0.312	0.328	0.483	0.284	0.276	0.179	0.157
NCI-H1915	0.27	0.248	0.252	0.268	0.249	0.33	0.3	0.236	0.186	0.188	1.01	0.971	0.908	0.648	0.64	0.726	0.569	0.467	0.251	0.201
NCI-H1944	0.622	0.395	0.378	0.344	0.361	0.192	0.154	0.138	0.157	0.139	0.373	0.341		0.269	0.307	0.5	0.524	0.297	0.249	0.202
NCI-H1975	0.9	0.729	0.735	0.718	0.667	0.309	0.268	0.186	0.18	0.142	0.253	0.192	0.157	0.143	0.148	0.597	0.471	0.374	0.201	0.214
NCI-H1993	0.95	1.03	1.09	0.895	0.974	0.596	0.572	0.5	0.552	0.569	0.885	0.855		0.625	0.712	0.763	0.701	0.598	0.742	0.742
NCI-H2085	0.717	0.692	0.728	0.777	0.72	0.307	0.308	0.396	0.251	0.223	0.53	0.692	0.664	0.596	0.524	1.09	0.924	0.927	0.634	0.787
NCI-H2087	0.791	0.542	0.623	0.522	0.423	0.866	0.673	0.544	0.558	0.63		1.07	0.981	0.881	0.785	1.45	1.11	1.13	0.845	0.867
NCI-H2126	0.913	0.877	0.856	0.927	0.901	0.628	0.522	0.284		0.336	0.568	0.525	0.461	0.567	0.649	1.07	0.998	0.832	0.924	0.839
NCI-H2170	0.632	0.574	0.571	0.537	0.601	0.553	0.676	0.665	0.515	0.443	0.279	0.27	0.229	0.247	0.258	0.763	0.74	0.749	0.577	0.478
